Data reported in patent US20080009418A1, “Selective Inhibitors” (Alchemia LTD., priority 2004, published 2008).

Experiments:
Human δ-opioid (DOP) = target: T1, Human δ-opioid (DOP) (Homo sapiens, UniProt P41143); test: Radioligand binding, human δ-opioid (DOP) membranes, FlashPlate, [3H]-Bremazocine; settings: compound at 10 μM; for A1 radioligand binding inhibition: human δ-opioid (DOP) membranes
T1 construct: purchased Perkin Elmer Biosignal
Summary of the method: (§1)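 Cloned human receptor membranes were coated onto FlashPlate wells and incubated with radioligand and compound (added from a 0.5 mM DMSO daughter plate) for 1 hour at room temperature in the dark. Scintillation counting gave percent inhibition, with DMSO defining total and reference ligand defining non-specific binding.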

Human κ-Opioid (KOP) = target: T2, Human κ-Opioid (KOP) (Homo sapiens, UniProt P41145); test: Radioligand binding, human κ-opioid (KOP) membranes, filtration, [3H]-Diprenorphine; settings: compound at 10 μM; for A2 radioligand binding inhibition: human κ-opioid (KOP) membranes
T2 construct: purchased Perkin Elmer Biosignal
T2 sequence (P41145 whole entry): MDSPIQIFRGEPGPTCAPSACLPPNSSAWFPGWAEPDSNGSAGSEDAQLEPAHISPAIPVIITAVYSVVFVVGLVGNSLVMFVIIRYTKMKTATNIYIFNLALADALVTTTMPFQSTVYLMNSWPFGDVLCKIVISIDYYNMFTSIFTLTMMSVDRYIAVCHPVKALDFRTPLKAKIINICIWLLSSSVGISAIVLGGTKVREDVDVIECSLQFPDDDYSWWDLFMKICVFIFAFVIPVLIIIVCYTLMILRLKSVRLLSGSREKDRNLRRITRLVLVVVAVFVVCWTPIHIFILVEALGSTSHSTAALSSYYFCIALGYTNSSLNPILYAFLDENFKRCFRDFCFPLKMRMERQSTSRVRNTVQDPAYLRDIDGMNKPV
Summary of the method: (§2)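 Membranes from cloned human receptors were incubated with compound and radioligand for 1 hour at room temperature. Bound ligand was collected on 0.3% PEI-soaked filters, washed with cold 50 mM Tris-HCl pH 7.4, and counted by scintillation. Percent inhibition was computed against DMSO totals and reference-ligand nonspecific wells.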

Human Melanocortin (MC3) = target: T3, Human Melanocortin (MC3) (Homo sapiens, UniProt P41968); test: Radioligand binding, human melanocortin MC3 membranes, FlashPlate, [125I]-NDP-αMSH; settings: compound at 10 μM; for A3 radioligand binding inhibition: human melanocortin MC3 membranes
T3 construct: purchased Perkin Elmer Biosignal
T3 sequence (P41968 whole entry): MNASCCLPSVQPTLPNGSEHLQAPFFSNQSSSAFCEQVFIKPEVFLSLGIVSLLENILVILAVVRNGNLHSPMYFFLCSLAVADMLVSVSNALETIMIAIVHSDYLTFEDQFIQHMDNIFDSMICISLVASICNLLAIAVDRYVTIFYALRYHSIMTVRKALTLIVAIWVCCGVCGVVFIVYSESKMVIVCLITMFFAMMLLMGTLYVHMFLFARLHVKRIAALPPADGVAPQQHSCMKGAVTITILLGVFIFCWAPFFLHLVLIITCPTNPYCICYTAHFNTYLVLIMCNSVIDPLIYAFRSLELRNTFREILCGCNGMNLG
Summary of the method: as §1

Human Melanocortin (MC4) = target: T4, Human Melanocortin (MC4) (Homo sapiens, UniProt P32245); test: Radioligand binding, human melanocortin MC4 membranes, FlashPlate, [125I]-NDP-αMSH; settings: compound at 10 μM; for A4 radioligand binding inhibition: human melanocortin MC4 membranes
T4 construct: purchased Perkin Elmer Biosignal
T4 sequence (P32245 whole entry): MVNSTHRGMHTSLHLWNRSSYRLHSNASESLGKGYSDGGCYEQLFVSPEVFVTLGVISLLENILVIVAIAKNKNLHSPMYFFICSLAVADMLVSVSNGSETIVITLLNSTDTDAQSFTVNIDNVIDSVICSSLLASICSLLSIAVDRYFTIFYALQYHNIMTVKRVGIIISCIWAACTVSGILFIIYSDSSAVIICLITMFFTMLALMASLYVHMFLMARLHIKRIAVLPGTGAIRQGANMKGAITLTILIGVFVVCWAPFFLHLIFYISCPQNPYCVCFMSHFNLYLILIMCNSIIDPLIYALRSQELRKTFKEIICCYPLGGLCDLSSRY
Summary of the method: as §1

Human melanocortin (MC5) = target: T5, Human melanocortin (MC5) (Homo sapiens, UniProt P33032); test: Radioligand binding, human melanocortin MC5 membranes, FlashPlate, [125I]-NDP-αMSH; settings: compound at 10 μM; for A5 radioligand binding inhibition: human melanocortin MC5 membranes
T5 construct: purchased Perkin Elmer Biosignal
T5 sequence (P33032 whole entry): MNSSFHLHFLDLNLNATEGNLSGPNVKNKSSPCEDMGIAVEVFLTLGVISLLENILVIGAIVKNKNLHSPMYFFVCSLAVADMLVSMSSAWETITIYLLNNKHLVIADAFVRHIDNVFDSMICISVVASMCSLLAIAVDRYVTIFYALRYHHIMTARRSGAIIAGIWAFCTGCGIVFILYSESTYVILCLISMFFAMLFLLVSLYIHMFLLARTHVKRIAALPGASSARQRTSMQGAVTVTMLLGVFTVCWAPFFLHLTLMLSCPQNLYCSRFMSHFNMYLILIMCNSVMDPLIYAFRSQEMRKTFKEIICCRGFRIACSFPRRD
Summary of the method: as §1

[1] = target: T6, Human melanin-concentrating hormone (MCH1) (Homo sapiens, UniProt Q99705); test: Radioligand binding, human melanin-concentrating hormone MCH1 membranes, FlashPlate, [125I]-S36057; settings: compound at 10 μM; for A6: inhibition of radioligand binding, human melanin-concentrating hormone (MCH1): [125I]-S36057; for A6 radioligand binding inhibition: human MCH1 membranes
T6 construct: purchased Perkin Elmer Biosignal
T6 sequence (Q99705 whole entry): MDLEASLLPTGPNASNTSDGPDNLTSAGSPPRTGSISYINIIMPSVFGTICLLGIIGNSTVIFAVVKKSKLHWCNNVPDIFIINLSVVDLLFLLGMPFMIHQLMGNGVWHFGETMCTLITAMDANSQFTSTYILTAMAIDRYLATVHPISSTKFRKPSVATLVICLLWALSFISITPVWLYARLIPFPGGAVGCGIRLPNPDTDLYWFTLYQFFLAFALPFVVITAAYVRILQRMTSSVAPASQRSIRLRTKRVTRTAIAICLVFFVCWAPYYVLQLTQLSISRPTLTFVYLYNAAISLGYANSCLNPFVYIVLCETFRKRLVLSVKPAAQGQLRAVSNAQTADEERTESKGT
Summary of the method: as §1

Human μ-opioid (MOP) = target: T7, Human μ-opioid (MOP) (Homo sapiens, UniProt P35372); test: Radioligand binding, human μ-opioid (MOP) membranes, FlashPlate, [3H]-Naloxone; settings: compound at 10 μM; for A7 radioligand binding inhibition: human μ-opioid (MOP) membranes
T7 construct: purchased Perkin Elmer Biosignal
T7 sequence (P35372 whole entry): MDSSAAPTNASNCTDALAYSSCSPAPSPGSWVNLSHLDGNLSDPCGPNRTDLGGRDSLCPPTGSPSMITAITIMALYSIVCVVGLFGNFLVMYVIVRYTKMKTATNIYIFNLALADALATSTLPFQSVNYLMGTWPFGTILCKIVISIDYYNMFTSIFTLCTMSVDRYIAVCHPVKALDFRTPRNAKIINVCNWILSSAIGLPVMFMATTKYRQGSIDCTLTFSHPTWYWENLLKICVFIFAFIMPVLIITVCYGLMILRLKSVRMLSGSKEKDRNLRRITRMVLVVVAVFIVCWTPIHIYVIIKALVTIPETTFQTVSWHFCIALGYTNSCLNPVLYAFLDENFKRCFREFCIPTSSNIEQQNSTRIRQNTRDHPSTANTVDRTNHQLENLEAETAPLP
Summary of the method: as §1

Human neurokinin (NK1) = target: T8, Human neurokinin (NK1) (Homo sapiens, UniProt P25103); test: Radioligand binding, human neurokinin NK1 membranes, filtration, [125I]-Substance P; settings: compound at 10 μM; for A8 radioligand binding inhibition: human neurokinin NK1 membranes
T8 construct: purchased Perkin Elmer Biosignal
T8 sequence (P25103 whole entry): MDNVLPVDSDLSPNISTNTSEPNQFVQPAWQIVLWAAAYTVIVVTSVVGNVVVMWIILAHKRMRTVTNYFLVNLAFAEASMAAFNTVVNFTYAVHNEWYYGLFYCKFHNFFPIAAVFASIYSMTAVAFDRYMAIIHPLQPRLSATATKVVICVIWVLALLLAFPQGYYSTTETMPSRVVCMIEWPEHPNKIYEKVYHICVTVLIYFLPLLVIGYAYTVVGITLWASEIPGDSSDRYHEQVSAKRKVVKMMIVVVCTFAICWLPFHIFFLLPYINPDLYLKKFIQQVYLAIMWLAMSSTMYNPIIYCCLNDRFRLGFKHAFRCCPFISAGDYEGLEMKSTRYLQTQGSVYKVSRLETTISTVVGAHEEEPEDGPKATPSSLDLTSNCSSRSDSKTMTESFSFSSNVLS
Summary of the method: as §2

[2] = target: T9, Human neuropeptide Y (NPY-Y1) (Homo sapiens, UniProt P25929); test: Radioligand binding, human neuropeptide Y NPY-Y1 membranes, FlashPlate, [125I]-PYY; settings: compound at 10 μM
T9 construct: purchased Perkin Elmer Biosignal
T9 sequence (P25929 1-384): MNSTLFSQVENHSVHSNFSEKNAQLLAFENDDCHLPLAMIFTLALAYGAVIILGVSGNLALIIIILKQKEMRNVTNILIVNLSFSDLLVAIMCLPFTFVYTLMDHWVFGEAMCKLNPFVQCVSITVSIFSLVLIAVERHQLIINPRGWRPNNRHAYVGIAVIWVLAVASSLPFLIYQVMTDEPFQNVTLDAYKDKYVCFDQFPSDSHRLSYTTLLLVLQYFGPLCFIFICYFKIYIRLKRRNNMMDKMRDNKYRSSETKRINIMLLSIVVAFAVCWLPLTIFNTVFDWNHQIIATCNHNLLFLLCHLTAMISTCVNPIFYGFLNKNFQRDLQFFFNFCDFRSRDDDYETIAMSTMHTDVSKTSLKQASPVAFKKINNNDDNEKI
Summary of the method: as §1

Human opioid (ORL1) = target: T10, Human opioid (ORL1) (Homo sapiens, UniProt P41146); test: Radioligand binding, human opioid ORL1 membranes, FlashPlate, [125I]-Nociceptin; settings: compound at 10 μM
T10 construct: purchased Perkin Elmer Biosignal
T10 sequence (P41146 whole entry): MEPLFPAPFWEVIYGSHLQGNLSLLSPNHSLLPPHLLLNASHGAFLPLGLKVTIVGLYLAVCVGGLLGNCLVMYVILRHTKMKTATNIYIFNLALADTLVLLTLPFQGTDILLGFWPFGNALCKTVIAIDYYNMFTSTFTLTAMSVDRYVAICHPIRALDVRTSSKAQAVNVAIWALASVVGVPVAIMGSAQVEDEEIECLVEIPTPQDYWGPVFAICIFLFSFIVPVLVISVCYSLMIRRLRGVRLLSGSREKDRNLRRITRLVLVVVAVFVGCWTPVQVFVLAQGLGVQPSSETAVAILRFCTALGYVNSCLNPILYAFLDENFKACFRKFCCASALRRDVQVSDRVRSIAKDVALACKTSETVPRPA
Summary of the method: as §1

Mouse urotensin (mUR2) = target: T11, Mouse urotensin (mUR2) (Mus musculus, UniProt Q8VIH9); test: Radioligand binding, mouse urotensin mUR2 membranes, FlashPlate, [125I]-Urotensin II; settings: compound at 10 μM; for A11 radioligand binding inhibition: mouse urotensin mUR2 membranes
T11 construct: purchased Perkin Elmer Biosignal
T11 sequence (Q8VIH9 1-385): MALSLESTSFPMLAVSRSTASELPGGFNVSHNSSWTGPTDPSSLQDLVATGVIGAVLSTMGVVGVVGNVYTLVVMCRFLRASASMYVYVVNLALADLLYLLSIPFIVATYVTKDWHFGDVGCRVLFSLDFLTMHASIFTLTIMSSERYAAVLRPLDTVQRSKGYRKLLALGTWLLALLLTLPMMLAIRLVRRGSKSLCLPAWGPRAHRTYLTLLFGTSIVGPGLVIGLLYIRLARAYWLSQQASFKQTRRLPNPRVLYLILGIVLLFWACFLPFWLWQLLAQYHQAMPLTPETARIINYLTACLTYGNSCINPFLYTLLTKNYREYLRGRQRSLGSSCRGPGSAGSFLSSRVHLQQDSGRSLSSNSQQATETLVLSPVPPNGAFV
Summary of the method: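 Cloned mouse urotensin (mUR2) receptor membranes from Perkin Elmer Biosignal were immobilized in FlashPlate microplates using a proprietary coating. Each well got 19.5 μl buffer, then 0.5 μl of DMSO, reference ligand, or compound. Adding 5 μl of [125I]-Urotensin II, diluted to 5× final concentration in binding buffer, started binding. Plates were sealed with TopSeal-A and incubated 1 hour at room temperature in the dark. Wells were counted for 30 seconds each on a TopCount after a 60-second delay, and percentage inhibition was calculated.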

T1 sequence (P41143 whole entry): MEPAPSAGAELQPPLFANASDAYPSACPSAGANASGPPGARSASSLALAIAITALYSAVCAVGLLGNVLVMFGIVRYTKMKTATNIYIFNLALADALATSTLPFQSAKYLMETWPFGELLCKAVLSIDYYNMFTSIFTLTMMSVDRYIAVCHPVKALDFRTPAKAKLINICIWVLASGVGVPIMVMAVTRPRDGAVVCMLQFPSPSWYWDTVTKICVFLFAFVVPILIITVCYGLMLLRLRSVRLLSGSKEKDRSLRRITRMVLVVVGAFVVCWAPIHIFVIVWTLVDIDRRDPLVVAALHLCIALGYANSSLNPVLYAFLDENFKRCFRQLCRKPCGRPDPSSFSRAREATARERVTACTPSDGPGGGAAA

Structure (SMILES) | A1: inhibition of radioligand binding, human δ-opioid (DOP) (Human δ-opioid (DOP); [3H]-Bremazocine) | A2: inhibition of radioligand binding, human κ-opioid (KOP) (Human κ-Opioid (KOP); [3H]-Diprenorphine) | A3: inhibition of radioligand binding, human melanocortin (MC3) (Human Melanocortin (MC3); [125I]-NDP-αMSH) | A4: inhibition of radioligand binding, human melanocortin (MC4) (Human Melanocortin (MC4); [125I]-NDP-αMSH) | A5: inhibition of radioligand binding, human melanocortin (MC5) (Human melanocortin (MC5); [125I]-NDP-αMSH) | A6: inhibition of radioligand binding, human melanin-concentrating hormone (MCH1) [1] | A7: inhibition of radioligand binding, human μ-opioid (MOP) (Human μ-opioid (MOP); [3H]-Naloxone) | A8: inhibition of radioligand binding, human neurokinin (NK1) (Human neurokinin (NK1); [125I]-Substance P) | A9: inhibition of radioligand binding, human neuropeptide Y (NPY-Y1) ([2]; [125I]-PYY) | A10: inhibition of radioligand binding, human opioid (ORL1) (Human opioid (ORL1); [125I]-Nociceptin) | A11: inhibition of radioligand binding, mouse urotensin (mUR2) (Mouse urotensin (mUR2); [125I]-Urotensin II) | A1 radioligand binding inhibition (Human δ-opioid (DOP)) | A2 radioligand binding inhibition (Human κ-Opioid (KOP)) | A3 radioligand binding inhibition (Human Melanocortin (MC3)) | A4 radioligand binding inhibition (Human Melanocortin (MC4)) | A5 radioligand binding inhibition (Human melanocortin (MC5)) | A6 radioligand binding inhibition [1] | A7 radioligand binding inhibition (Human μ-opioid (MOP)) | A8 radioligand binding inhibition (Human neurokinin (NK1)) | A9 radioligand binding inhibition ([2]; human NPY-Y1 membranes) | other results
CO[C@H]1[C@H](O)[C@@H](COCc2ccc3ccccc3c2)OC(OCc2ccc(Cl)cc2)[C@@H]1NC(=O)CNC(=N)N (stereo partly shown) [compound 355] | − (“−” indicates less than 50% inhibition at 10 μM) | − (“−” indicates less than 50% inhibition at 10 μM) | − (“−” indicates less than 50% inhibition at 10 μM) | + (“+” indicates greater than 50% inhibition at 10 μM) | + (“+” indicates greater than 50% inhibition at 10 μM) | − (“−” indicates less than 50% inhibition at 10 μM) | − (“−” indicates less than 50% inhibition at 10 μM) | + (“+” indicates greater than 50% inhibition at 10 μM) | − (“−” indicates less than 50% inhibition at 10 μM) | − (“−” indicates less than 50% inhibition at 10 μM) | − (“−” indicates less than 50% inhibition at 10 μM) | – | – | – | – | – | – | – | – | – | –
CSC1OC(COCc2ccc(-c3ccccc3)cc2)C(O)C(OCc2ccc3ccccc3c2)C1NC(=O)CNC(=N)N (stereo not shown) [compound 312] | − (“−” indicates less than 50% inhibition at 10 μM) | − (“−” indicates less than 50% inhibition at 10 μM) | + (“+” indicates greater than 50% inhibition at 10 μM) | + (“+” indicates greater than 50% inhibition at 10 μM) | + (“+” indicates greater than 50% inhibition at 10 μM) | − (“−” indicates less than 50% inhibition at 10 μM) | − (“−” indicates less than 50% inhibition at 10 μM) | + (“+” indicates greater than 50% inhibition at 10 μM) | − (“−” indicates less than 50% inhibition at 10 μM) | − (“−” indicates less than 50% inhibition at 10 μM) | − (“−” indicates less than 50% inhibition at 10 μM) | – | – | – | – | – | – | – | – | – | –
COC[C@H]1OC(OCCc2ccccc2)[C@H](NC(=O)CCNC(=N)N)[C@@H](OCc2ccc3ccccc3c2)[C@@H]1O (stereo partly shown) [compound 45] | – | – | – | – | – | – | – | – | – | – | – | − (“−” indicates less than 50% inhibition at 10 μM) | − (“−” indicates less than 50% inhibition at 10 μM) | − (“−” indicates less than 50% inhibition at 10 μM) | + (“+” indicates greater than 50% inhibition at 10 μM) | − (“−” indicates less than 50% inhibition at 10 μM) | − (“−” indicates less than 50% inhibition at 10 μM) | − (“−” indicates less than 50% inhibition at 10 μM) | + (“+” indicates greater than 50% inhibition at 10 μM) | − (“−” indicates less than 50% inhibition at 10 μM) | A10 radioligand binding inhibition (Human opioid (ORL1); human ORL1 membranes): − (“−” indicates less than 50% inhibition at 10 μM); A11 radioligand binding inhibition (Mouse urotensin (mUR2)): − (“−” indicates less than 50% inhibition at 10 μM)
N=C(N)NCCC(=O)NC1C(OCc2ccc(-c3ccccc3)cc2)OC(COCc2ccc3ccccc3c2)C(O)C1OCc1ccc(-c2ccccc2)cc1 (stereo not shown) [compound 414] | – | – | – | – | – | – | – | – | – | – | – | – | – | – | – | – | – | – | – | – | A1: inhibition of radioligand binding (Human δ-opioid (DOP); [3H]-Bremazocine, human DOP membranes): − (“−” indicates less than 50% inhibition at 10 μM); A2: inhibition of radioligand binding (Human κ-Opioid (KOP); [3H]-Diprenorphine, human KOP membranes): − (“−” indicates less than 50% inhibition at 10 μM); A3: inhibition of radioligand binding (Human Melanocortin (MC3); [125I]-NDP-αMSH, human MC3 membranes): − (“−” indicates less than 50% inhibition at 10 μM); A4: inhibition of radioligand binding (Human Melanocortin (MC4); [125I]-NDP-αMSH, human MC4 membranes): − (“−” indicates less than 50% inhibition at 10 μM); A5: inhibition of radioligand binding (Human melanocortin (MC5); [125I]-NDP-αMSH, human MC5 membranes): + (“+” indicates greater than 50% inhibition at 10 μM); A6: inhibition of radioligand binding ([1]; [125I]-S36057, human MCH1 membranes): − (“−” indicates less than 50% inhibition at 10 μM); A7: inhibition of radioligand binding (Human μ-opioid (MOP); [3H]-Naloxone, human MOP membranes): − (“−” indicates less than 50% inhibition at 10 μM); A8: inhibition of radioligand binding (Human neurokinin (NK1); [125I]-Substance P, human NK1 membranes): + (“+” indicates greater than 50% inhibition at 10 μM); A9: inhibition of radioligand binding ([2]; [125I]-PYY, human NPY-Y1 membranes): − (“−” indicates less than 50% inhibition at 10 μM); A10: inhibition of radioligand binding (Human opioid (ORL1); [125I]-Nociceptin, human ORL1 membranes): − (“−” indicates less than 50% inhibition at 10 μM); A11: inhibition of radioligand binding (Mouse urotensin (mUR2); [125I]-Urotensin II, mouse mUR2 membranes): − (“−” indicates less than 50% inhibition at 10 μM)
CO[C@H]1[C@H](O)[C@@H](COCc2ccc(-c3ccccc3)cc2)OC(OCc2ccccc2)[C@@H]1NC(=O)CCCN (stereo partly shown) [compound 84] | – | – | – | – | – | – | – | – | – | – | – | − (“−” indicates less than 50% inhibition at 10 μM) | − (“−” indicates less than 50% inhibition at 10 μM) | − (“−” indicates less than 50% inhibition at 10 μM) | − (“−” indicates less than 50% inhibition at 10 μM) | − (“−” indicates less than 50% inhibition at 10 μM) | − (“−” indicates less than 50% inhibition at 10 μM) | − (“−” indicates less than 50% inhibition at 10 μM) | + (“+” indicates greater than 50% inhibition at 10 μM) | − (“−” indicates less than 50% inhibition at 10 μM) | A10 radioligand binding inhibition (Human opioid (ORL1); human ORL1 membranes): − (“−” indicates less than 50% inhibition at 10 μM); A11 radioligand binding inhibition (Mouse urotensin (mUR2)): − (“−” indicates less than 50% inhibition at 10 μM)
